Measurements published in patent US10239882B2, “Substituted 5-methyl-[1,2,4]triazolo[1,5-a]pyrimidin-2-amine compounds as PDE2 inhibitors” (DART NEUROSCIENCE (CAYMAN) LTD., priority 2014, dated 2019).

Biological target: FLAG-tagged PDE2A1 (amino acids 2-941) (Homo sapiens (Human), UniProt O00408)
Assay: IMAP TR-FRET PDE2A enzymatic assay
Format: biochemical
Conditions: 200 nM FAM-cAMP substrate, 11-point half-log dose-response; for IC50: read-out: PDE2 (PIC50)
Text: An IMAP TR-FRET-based phosphodiesterase assay was developed using the PDE2A isoform. IMAP technology is based on high-affinity binding of phosphate by immobilized metal (MIII) coordination complexes on nanoparticles. The IMAP “binding reagent” recognizes phosphate groups on AMP or GMP generated from cAMP or cGMP in a PDE reaction. Cyclic nucleotides that carry a phosphodiester bond and not a free phosphate are not recognized by the binding reagent. The time resolved fluorescence resonance energy transfer (TR-FRET) is afforded by a Terbium (Tb)-Donor pre-bound to the nanoparticles. FRET occurs when the fluorescent-labeled AMP or GMP product of a PDE reaction binds and comes into close proximity to the Tb-Donor complex. Due to the long lifetime of Tb fluorescence, detection can be run in time-resolved mode to reduce or eliminate interference from auto-fluorescent compounds.
The IMAP TR-FRET PDE2A assay was performed in 1536-well white plates. A total of 250 pg per well of FLAG-tagged PDE2A1 (amino acids 2-941) was dispensed in 2.5 μL IMAP assay buffer consisting of 10 mM Tris pH 7.2, 10 mM MgCl2, 1 mM DTT, and 0.1% fatty acid free BSA. 30 nL of compound was then added from 1 mM stocks in DMSO using a Kalypsys Pintool. Plates were incubated for 5 min at room temperature before dispensing 1.5 μL of 533 nM FAM-cAMP substrate for a final concentration of 200 nM. Following a brief centrifugation, plates were incubated for 30 min at room temperature. The assay was terminated by adding 5 μL IMAP binding reagent Tb complex to each well which was prepared according to manufacturer's recommendations (Molecular Devices). Plates were incubated an additional 90 minutes at room temperature and read on a Viewlux plate reader. All compounds were solvated at a concentration of 10 mM in DMSO and tested in 11-point half-log dose-response. Curve fitting and IC50 values were determined using a standard four parameter fit.

FLAG-tagged PDE2A1 (amino acids 2-941), sequence (O00408 2-941): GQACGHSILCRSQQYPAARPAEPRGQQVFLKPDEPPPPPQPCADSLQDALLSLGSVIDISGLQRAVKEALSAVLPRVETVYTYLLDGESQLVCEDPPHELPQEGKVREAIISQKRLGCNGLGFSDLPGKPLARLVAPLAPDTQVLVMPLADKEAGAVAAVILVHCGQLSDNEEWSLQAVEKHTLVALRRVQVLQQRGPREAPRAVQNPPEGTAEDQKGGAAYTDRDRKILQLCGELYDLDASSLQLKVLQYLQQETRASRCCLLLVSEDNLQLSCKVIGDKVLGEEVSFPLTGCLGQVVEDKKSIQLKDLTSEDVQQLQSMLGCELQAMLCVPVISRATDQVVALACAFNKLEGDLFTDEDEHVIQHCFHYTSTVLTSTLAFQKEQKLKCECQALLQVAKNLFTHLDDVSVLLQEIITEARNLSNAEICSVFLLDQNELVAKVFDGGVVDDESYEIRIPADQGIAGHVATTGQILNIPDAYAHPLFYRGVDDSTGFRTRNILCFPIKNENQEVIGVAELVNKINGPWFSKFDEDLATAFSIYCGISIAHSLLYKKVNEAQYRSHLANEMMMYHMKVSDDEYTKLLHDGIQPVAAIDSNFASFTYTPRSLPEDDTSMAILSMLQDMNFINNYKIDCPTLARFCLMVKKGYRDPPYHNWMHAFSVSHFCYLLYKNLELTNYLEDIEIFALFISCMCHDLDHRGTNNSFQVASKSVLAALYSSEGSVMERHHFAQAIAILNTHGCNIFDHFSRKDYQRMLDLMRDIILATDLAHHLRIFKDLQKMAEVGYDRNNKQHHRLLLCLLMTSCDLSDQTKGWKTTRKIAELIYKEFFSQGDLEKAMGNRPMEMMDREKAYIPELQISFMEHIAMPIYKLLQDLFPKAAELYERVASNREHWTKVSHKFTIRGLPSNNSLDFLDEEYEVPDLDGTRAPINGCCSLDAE

SMILES | IC50 [µM] | PDE2 (PIC50)
COc1ccc(CNc2nc3nc(C)cc(C4CCOCC4)n3n2)cc1 [Example 1, N-(4-Methoxybenzyl)-5-methyl-7-(tetrahydro-2H-pyran-4-yl)-[1,2,4]triazolo[1,5-a]pyrimidin-2-amine] | 0.1 to 1 | –
Cc1cc(C2CC2)n2nc(NCc3ccc4c(c3)CCO4)nc2n1 [Example 2, 7-Cyclopropyl-N-((2,3-dihydrobenzofuran-5-yl)methyl)-5-methyl-[1,2,4]triazolo[1,5-a]pyrimidin-2-amine] | 1 to 10 | –
Cc1cc(C2CC2)n2nc(NCc3ccc4c(c3)OCC4)nc2n1 [Example 3, 7-Cyclopropyl-N-((2,3-dihydrobenzofuran-6-yl)methyl)-5-methyl-[1,2,4]triazolo[1,5-a]pyrimidin-2-amine] | 1 to 10 | –
COc1ccc(CNc2nc3nc(C)cc(C4CC4)n3n2)cc1 [Example 4, 7-Cyclopropyl-N-(4-methoxybenzyl)-5-methyl-[1,2,4]triazolo[1,5-a]pyrimidin-2-amine] | 1 to 10 | –
Cc1cc(C2CCCC2)n2nc(NCc3ccc4c(c3)CCC4)nc2n1 [Example 5, 7-Cyclopentyl-N-((2,3-dihydro-1H-inden-5-yl)methyl)-5-methyl-[1,2,4]triazolo[1,5-a]pyrimidin-2-amine] | 0.1 to 1 | –
Cc1cc(C(C)C)n2nc(NCc3ccc4c(c3)CCC4)nc2n1 [Example 6, N-((2,3-Dihydro-1H-inden-5-yl)methyl)-7-isopropyl-5-methyl-[1,2,4]triazolo[1,5-a]pyrimidin-2-amine] | 0.1 to 1 | –
Cc1cc(C(C)C)n2nc(NCc3cccc(Cl)c3)nc2n1 [Example 7, N-(3-Chlorobenzyl)-7-isopropyl-5-methyl-[1,2,4]triazolo[1,5-a]pyrimidin-2-amine] | 1 to 10 | –
Cc1cc(C(C)C)n2nc(NCc3ccccc3)nc2n1 [Example 8, N-Benzyl-7-isopropyl-5-methyl-[1,2,4]triazolo[1,5-a]pyrimidin-2-amine] | 1 to 10 | –
Cc1cc(C(C)(C)C)n2nc(NCc3cccc(Cl)c3)nc2n1 [Example 9, 7-(tert-Butyl)-N-(3-chlorobenzyl)-5-methyl-[1,2,4]triazolo[1,5-a]pyrimidin-2-amine] | 0.1 to 1 | –
COc1ccc(CNc2nc3nc(C)cc(C(C)C)n3n2)cc1 [Example 10, 7-Isopropyl-N-(4-methoxybenzyl)-5-methyl-[1,2,4]triazolo[1,5-a]pyrimidin-2-amine] | 1 to 10 | –
CCC(C)c1cc(C)nc2nc(NCc3ccc(OC)cc3)nn12 (stereo not shown) [Example 11, 7-(sec-butyl)-N-(4-Methoxybenzyl)-5-methyl-[1,2,4]triazolo[1,5-a]pyrimidin-2-amine] | 0.1 to 1 | –
COc1ccc(CNc2nc3nc(C)cc(C4CCCO4)n3n2)cc1 (stereo not shown) [Example 12, N-(4-Methoxybenzyl)-5-methyl-7-(tetrahydrofuran-2-yl)-[1,2,4]triazolo[1,5-a]pyrimidin-2-amine] | 1 to 10 | –
Cc1cc(C2CCOCC2)n2nc(NCc3cc(Cl)ccc3F)nc2n1 [Example 13, N-(5-Chloro-2-fluorobenzyl)-5-methyl-7-(tetrahydro-2H-pyran-4-yl)-[1,2,4]triazolo[1,5-a]pyrimidin-2-amine] | – | >7
Cc1cc(C2CCOCC2)n2nc(NCc3cc(F)cc(F)c3)nc2n1 [Example 14, N-[(3,5-Difluorophenyl)methyl]-5-methyl-7-(oxan-4-yl)-[1,2,4]triazolo[1,5-a]pyrimidin-2-amine] | 0.1 to 1 | –
COc1ccc(CNc2nc3nc(C)cc(C4CCOCC4)n3n2)c(F)c1 [Example 15, N-[(2-Fluoro-4-methoxyphenyl)methyl]-5-methyl-7-(oxan-4-yl)-[1,2,4]triazolo[1,5-a]pyrimidin-2-amine] | – | >7
Cc1cc(C2CCOCC2)n2nc(NCc3ccc4c(c3)OCCO4)nc2n1 [Example 16, N-(2,3-Dihydro-1,4-benzodioxin-6-ylmethyl)-5-methyl-7-(oxan-4-yl)-[1,2,4]triazolo[1,5-a]pyrimidin-2-amine] | 0.1 to 1 | –
Cc1cc(C2CCOCC2)n2nc(NCc3cnn(-c4ccccc4)c3)nc2n1 [Example 17, 5-Methyl-7-(oxan-4-yl)-N-[(1-phenyl-1H-pyrazol-4-yl)methyl]-[1,2,4]triazolo[1,5-a]pyrimidin-2-amine] | – | >7

SMILES | IC50 [µM] | PDE2 (PIC50)
COc1ccc(CNc2nc3nc(C)cc(C4CCN(C(C)=O)CC4)n3n2)cc1 [Example 18, 1-[4-(2-[(4-Methoxyphenyl)methyl]amino-5-methyl-[1,2,4]triazolo[1,5-a]pyrimidin-7-yl)piperidin-1-yl]ethan-1-one] | 0.1 to 1 | –
COc1ccc(CNc2nc3nc(C)cc(C4CCN(C(C)=O)CC4)n3n2)cc1C(F)F [Example 19, 1-{4-[2-({[3-(Difluoromethyl)-4-methoxyphenyl]methyl}amino)-5-methyl-[1,2,4]triazolo[1,5-a]pyrimidin-7-yl]piperidin-1-yl}ethan-1-one] | – | >7
CC(=O)N1CCC(c2cc(C)nc3nc(NCc4cccc(C(F)F)c4)nn23)CC1 [Example 20, 1-{4-[2-({[3-(Difluoromethyl)phenyl]methyl}amino)-5-methyl-[1,2,4]triazolo[1,5-a]pyrimidin-7-yl]piperidin-1-yl}ethan-1-one] | – | >7
COc1ccc(CNc2nc3nc(C)cc(C4CCOCC4)n3n2)cc1Cl [Example 21, N-[(3-Chloro-4-methoxyphenyl)methyl]-5-methyl-7-(oxan-4-yl)-[1,2,4]triazolo[1,5-a]pyrimidin-2-amine] | – | >7
COc1ccc(CNc2nc3nc(C)cc(C4CCC(F)(F)CC4)n3n2)cc1 [Example 22, 7-(4,4-Difluorocyclohexyl)-N-[(4-methoxyphenyl)methyl]-5-methyl-[1,2,4]triazolo[1,5-a]pyrimidin-2-amine] | 0.1 to 1 | –
Cc1cc(C2CCOCC2)n2nc(NCc3cccc(C(F)F)c3)nc2n1 [Example 23, N-{[3-(Difluoromethyl)phenyl]methyl}-5-methyl-7-(oxan-4-yl)-[1,2,4]triazolo[1,5-a]pyrimidin-2-amine] | – | >7
COc1cccc(CNc2nc3nc(C)cc(C4CCOCC4)n3n2)c1 [Example 24, N-[(3-Methoxyphenyl)methyl]-5-methyl-7-(oxan-4-yl)-[1,2,4]triazolo[1,5-a]pyrimidin-2-amine] | 0.1 to 1 | –
COc1ccc(CNc2nc3nc(C)cc(C4CCOCC4)n3n2)cc1C(F)F [Example 25, N-{[3-(Difluoromethyl)-4-methoxyphenyl]methyl}-5-methyl-7-(oxan-4-yl)-[1,2,4]triazolo[1,5-a]pyrimidin-2-amine] | – | >7
Cc1cc(C2CCOCC2)n2nc(NCc3ccccc3F)nc2n1 [Example 26, N-[(2-Fluorophenyl)methyl]-5-methyl-7-(oxan-4-yl)-[1,2,4]triazolo[1,5-a]pyrimidin-2-amine] | 0.1 to 1 | –
Cc1ccc(F)c(CNc2nc3nc(C)cc(C4CCOCC4)n3n2)c1 [Example 27, N-[(2-Fluoro-5-methylphenyl)methyl]-5-methyl-7-(oxan-4-yl)-[1,2,4]triazolo[1,5-a]pyrimidin-2-amine] | 0.1 to 1 | –
Cc1cccc(CNc2nc3nc(C)cc(C4CCOCC4)n3n2)c1 [Example 28, 5-Methyl-N-[(3-methylphenyl)methyl]-7-(oxan-4-yl)-[1,2,4]triazolo[1,5-a]pyrimidin-2-amine] | 0.1 to 1 | –
COc1ccc(CNc2nc3nc(C(F)F)cc(C4CCOCC4)n3n2)cc1 [Example 29, 5-(Difluoromethyl)-N-[(4-methoxyphenyl)methyl]-7-(oxan-4-yl)-[1,2,4]triazolo[1,5-a]pyrimidin-2-amine] | – | >7
COc1ccc(CNc2nc3nc(CF)cc(C4CCOCC4)n3n2)cc1 [Example 30, 5-(Fluoromethyl)-N-[(4-methoxyphenyl)methyl]-7-(oxan-4-yl)-[1,2,4]triazolo[1,5-a]pyrimidin-2-amine] | – | >7
COc1cccc(-n2cc(CNc3nc4nc(C)cc(C5CCOCC5)n4n3)cn2)c1 [Example 31, N-{[1-(3-Methoxyphenyl)-1H-pyrazol-4-yl]methyl}-5-methyl-7-(oxan-4-yl)-[1,2,4]triazolo[1,5-a]pyrimidin-2-amine] | – | >7
COc1ccc(F)c(CNc2nc3nc(C)cc(C4CCOCC4)n3n2)c1 [Example 32, N-[(2-Fluoro-5-methoxyphenyl)methyl]-5-methyl-7-(oxan-4-yl)-[1,2,4]triazolo[1,5-a]pyrimidin-2-amine] | 0.1 to 1 | –
Cc1cc(C2CCOCC2)n2nc(NCc3ccccc3)nc2n1 [Example 33, N-Benzyl-5-methyl-7-(oxan-4-yl)-[1,2,4]triazolo[1,5-a]pyrimidin-2-amine] | 0.1 to 1 | –
COc1ccc(CNc2nc3nc(C)cc(C4(C)CCOCC4)n3n2)cc1 [Example 34, N-[(4-Methoxyphenyl)methyl]-5-methyl-7-(4-methyloxan-4-yl)-[1,2,4]triazolo[1,5-a]pyrimidin-2-amine] | 0.1 to 1 | –
